Where only a bound is given, the exact number is not on record here.

In general, EC50 refers to the concentration at which the effect is half-maximal.

The target in this assay is T1, human GLP-1R (Homo sapiens, UniProt P43220).
T1 construct: host or cells: HEK293
T1 sequence (P43220 24-463): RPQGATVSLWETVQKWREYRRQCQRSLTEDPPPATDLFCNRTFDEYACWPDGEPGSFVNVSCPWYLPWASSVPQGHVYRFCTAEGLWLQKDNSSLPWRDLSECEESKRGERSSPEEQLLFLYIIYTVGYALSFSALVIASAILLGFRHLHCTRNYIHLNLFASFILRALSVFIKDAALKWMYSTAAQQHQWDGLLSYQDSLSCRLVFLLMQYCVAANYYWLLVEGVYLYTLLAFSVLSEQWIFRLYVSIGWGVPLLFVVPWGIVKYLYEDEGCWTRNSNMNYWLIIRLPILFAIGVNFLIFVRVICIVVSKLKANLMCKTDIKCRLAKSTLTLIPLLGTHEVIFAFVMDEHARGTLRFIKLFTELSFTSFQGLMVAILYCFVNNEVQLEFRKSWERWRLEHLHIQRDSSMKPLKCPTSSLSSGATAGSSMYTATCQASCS
In words: GLP-1R cAMP assay (Example B1a, HTRF, 30 min at room temperature). It is filed as cell-based. As to conditions: cAMP accumulation in HEK293 expressing human GLP-1R, no BETP, 30 min room temperature (Method B1a, compounds ID 1-609), Table 1; read-out: EC50. The gist of the method:
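Competitive HTRF read-out of cAMP after 30 min room-temperature stimulation, BETP absent, of human GLP-1R-HEK293 cells (1,000/well) in HEPES buffer with 500 μM IBMX and 0.1% BSA. Activation normalised to GLP-1(7-37) positive control. EC50 from 4-parameter non-linear regression.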
(Changes in cAMP serve as a functional read-out for many G protein-coupled receptors.)
For `Cc1cc(-n2nc3c(c2-n2ccn(-c4ccc5c(cnn5C)c4Cl)c2=O)[C@@H]2COC[C@H](C3)N2C(=O)c2cc3cc([C@H]4CCOC(C)(C)C4)ccc3n2[C@@]2(c3noc(=O)[nH]3)C[C@@H]2C)cc(C)c1F` [Compound 222, 3-((1S,2S)-1-(2-((4R,8S)-3-(3-(4-chloro-1-methyl-1H-indazol-5-yl)-2-oxo-2,3-dihydro-1H-imidazol-1-yl)-2-(4-fluoro-3,5-dimethylphenyl)-2,4,5,7,8,9-hexahydro-4,8-epiminooxocino [5,4-c]pyrazole-10-carbonyl)-5-((S)-2,2-dimethyltetrahydro-2H-pyran-4-yl)-1H-indol-1-yl)-2-methylcyclopropyl)-1,2,4-oxadiazol-5(4H)-one], the EC50 is 177 nM.

Regarding `COc1ccc(-n2ccn(-c3c4c(nn3-c3cc(C)c(F)c(C)c3)C[C@H]3CC[C@@H]4N3C(=O)c3cc4cc([C@H]5CCOC(C)(C)C5)ccc4n3[C@@]3(c4noc(=O)[nH]4)C[C@@H]3C)c2=O)cc1` [Compound 223, 3-[(1S,2S)-1-[5-[(4S)-2,2-dimethyltetrahydropyran-4-yl]-2-[(1S,8R)-4-(4-fluoro-3,5-dimethyl-phenyl)-3-[3-(4-methoxyphenyl)-2-oxo-imidazol-1-yl]-4,5,11-triazatricyclo[6.2.1.02,6]undeca-2,5-diene-11-carbonyl]indol-1-yl]-2-methyl-cyclopropyl]-4H-1,2,4-oxadiazol-5-one], the EC50 came to 259 nM.

On to `Cc1cc(-n2nc3c(c2-n2ccn(-c4cc(F)c5c(cnn5C)c4F)c2=O)[C@@H]2COC[C@H](C3)N2C(=O)c2cc3cc([C@H]4CCOC(C)(C)C4)ccc3n2[C@@]2(c3noc(=O)[nH]3)C[C@@H]2C)cc(C)c1F` [Compound 224, 3-[(1S,2S)-1-[2-[(1R,8S)-3-[3-(4,7-difluoro-1-methyl-indazol-5-yl)-2-oxo-imidazol-1-yl]-4-(4-fluoro-3,5-dimethyl-phenyl)-10-oxa-4,5,12-triazatricyclo[6.3.1.02,6]dodeca-2,5-diene-12-carbonyl]-5-[(4S)-2,2-dimethyltetrahydropyran-4-yl]indol-1-yl]-2-methyl-cyclopropyl]-4H-1,2,4-oxadiazol-5-one], for which the half-maximal effective concentration (EC50) amounted to 212 nM.

As for `Cc1cc(-n2nc3c(c2-n2ccn(-c4ccc5c(cnn5C)c4F)c2=O)[C@@H]2COC[C@H](C3)N2C(=O)c2cc3cc([C@H]4CCOC(C)(C)C4)ncc3n2[C@@]2(c3noc(=O)[nH]3)C[C@@H]2C)cc(C)c1F` [Compound 225, 3-((1S,2S)-1-(5-((S)-2,2-dimethyltetrahydro-2H-pyran-4-yl)-2-((4R,8S)-3-(3-(4-fluoro-1-methyl-1H-indazol-5-yl)-2-oxo-2,3-dihydro-1H-imidazol-1-yl)-2-(4-fluoro-3,5-dimethylphenyl)-2,4,5,7,8,9-hexahydro-4,8-epiminooxocino [5,4-c]pyrazole-10-carbonyl)-1H-pyrrolo[2,3-c]pyridin-1-yl)-2-methylcyclopropyl)-1,2,4-oxadiazol-5 (4H)-one], the EC50 came to 34.1 nM.

On to `Cc1cc(-n2nc3c(c2-n2ccn(-c4ccc5c(cnn5C)c4F)c2=O)[C@@H]2COC[C@H](C3)N2C(=O)c2cc3cc([C@H]4CCOC5(CC5)C4)ccc3n2[C@@]2(c3noc(=O)[nH]3)C[C@@H]2C)cc(C)c1F` [Compound 226, 3-((1S,2S)-1-(2-((4R,8S)-3-(3-(4-fluoro-1-methyl-1H-indazol-5-yl)-2-oxo-2,3-dihydro-1H-imidazol-1-yl)-2-(4-fluoro-3,5-dimethylphenyl)-2,4,5,7,8,9-hexahydro-4,8-epiminooxocino [5,4-c]pyrazole-10-carbonyl)-5-((S)-4-oxaspiro[2.5]octan-7-yl)-1H-indol-1-yl)-2-methylcyclopropyl)-1,2,4-oxadiazol-5 (4H)-one], for which the EC50 turned out to be 435 nM.

For the molecule `Cc1cc(-n2nc3c(c2-n2ccn(-c4ccc5c(cnn5C)c4F)c2=O)[C@@H]2COC[C@H](C3)N2C(=O)c2cc3cc([C@@H]4CCOC5(CC5)C4)ccc3n2[C@@]2(c3noc(=O)[nH]3)C[C@@H]2C)cc(C)c1F` [Compound 227, 3-((1S,2S)-1-(2-((4R,8S)-3-(3-(4-fluoro-1-methyl-1H-indazol-5-yl)-2-oxo-2,3-dihydro-1H-imidazol-1-yl)-2-(4-fluoro-3,5-dimethylphenyl)-2,4,5,7,8,9-hexahydro-4,8-epiminooxocino [5,4-c]pyrazole-10-carbonyl)-5-((R)-4-oxaspiro[2.5]octan-7-yl)-1H-indol-1-yl)-2-methylcyclopropyl)-1,2,4-oxadiazol-5 (4H)-one], the concentration for a half-maximal effect (EC50) was 585 nM.

On to `Cc1cc(-n2nc3c(c2-n2ccn(-c4ccc5c(cnn5C)c4C)c2=O)[C@@H]2COC[C@H](C3)N2C(=O)c2cc3cc([C@H]4CCOC(C)(C)C4)ccc3n2[C@@]2(c3noc(=O)[nH]3)C[C@@H]2C)cc(C)c1F` [Compound 228, 3-[(1S,2S)-1-[2-[(1R,8S)-3-[3-(1,4-dimethylindazol-5-yl)-2-oxo-imidazol-1-yl]-4-(4-fluoro-3,5-dimethyl-phenyl)-10-oxa-4,5,12-triazatricyclo[6.3.1.02,6]dodeca-2,5-diene-12-carbonyl]-5-[(4S)-2,2-dimethyltetrahydropyran-4-yl]indol-1-yl]-2-methyl-cyclopropyl]-4H-1,2,4-oxadiazol-5-one], for which the concentration for a half-maximal effect (EC50) amounted to 402 nM.

Consider `Cc1cc(-n2nc3c(c2-n2ccn(-c4ccc5c(cnn5C)c4F)c2=O)[C@@H]2CC[C@H](C3)N2C(=O)c2cc3cc(N4CCOC(C)(C)C4)ccc3n2[C@@]2(c3noc(=O)[nH]3)C[C@@H]2C)cc(C)c1F` [Compound 229, 3-((1S,2S)-1-(5-(2,2-dimethylmorpholino)-2-((4S,7R)-3-(3-(4-fluoro-1-methyl-1H-indazol-5-yl)-2-oxo-2,3-dihydro-1H-imidazol-1-yl)-2-(4-fluoro-3,5-dimethylphenyl)-2,4,5,6,7,8-hexahydro-4,7-epiminocyclohepta [c]pyrazole-9-carbonyl)-1H-indol-1-yl)-2-methylcyclopropyl)-1,2,4-oxadiazol-5 (4H)-one], for which the EC50 is 167 nM.

`Cc1cc(-n2nc3c(c2-n2ccn(-c4ccc5c(cnn5C)c4Cl)c2=O)[C@@H]2COC[C@H](C3)N2C(=O)c2cc3cc(C4CCOC5(CC5)C4)ccc3n2[C@@]2(c3noc(=O)[nH]3)C[C@@H]2C)cc(C)c1F` (stereo partly drawn) [Compound 230, 3-[(1S,2S)-1-[2-[(1R,8S)-3-[3-(4-chloro-1-methyl-indazol-5-yl)-2-oxo-imidazol-1-yl]-4-(4-fluoro-3,5-dimethyl-phenyl)-10-oxa-4,5,12-triazatricyclo[6.3.1.02,6]dodeca-2,5-diene-12-carbonyl]-5-(4-oxaspiro[2.5]octan-7-yl)indol-1-yl]-2-methyl-cyclopropyl]-4H-1,2,4-oxadiazol-5-one]: the concentration for a half-maximal effect (EC50) was 389 nM.

Consider `Cc1cc(-n2nc3c(c2-n2ccn(-c4ccc5c(cnn5C)c4F)c2=O)[C@@H]2CC[C@H](C3)N2C(=O)c2cc3c(=O)n(C4CCOC(C)(C)C4)ccc3n2[C@@]2(c3noc(=O)[nH]3)C[C@@H]2C)cc(C)c1F` (stereo partly drawn) [Compound 231, 3-[(1S,2S)-1-[5-(2,2-dimethyltetrahydropyran-4-yl)-2-[(1S,8R)-4-(4-fluoro-3,5-dimethyl-phenyl)-3-[3-(4-fluoro-1-methyl-indazol-5-yl)-2-oxo-imidazol-1-yl]-4,5,11-triazatricyclo[6.2.1.02,6]undeca-2,5-diene-11-carbonyl]-4-oxo-pyrrolo[3,2-c]pyridin-1-yl]-2-methyl-cyclopropyl]-4H-1,2,4-oxadiazol-5-one], for which the EC50 is over 10000 nM.

Regarding `Cc1cc(-n2nc3c(c2-n2ccn(-c4ccc5c(cnn5C)c4F)c2=O)[C@@H]2CC[C@H](C3)N2C(=O)c2cc3c(OC4CCOC(C)(C)C4)nccc3n2[C@@]2(c3noc(=O)[nH]3)C[C@@H]2C)cc(C)c1F` (stereo partly drawn) [Compound 232, 3-[(1S,2S)-1-[4-(2,2-dimethyltetrahydropyran-4-yl)oxy-2-[(1S,8R)-4-(4-fluoro-3,5-dimethyl-phenyl)-3-[3-(4-fluoro-1-methyl-indazol-5-yl)-2-oxo-imidazol-1-yl]-4,5,11-triazatricyclo[6.2.1.02,6]undeca-2,5-diene-11-carbonyl]pyrrolo[3,2-c]pyridin-1-yl]-2-methyl-cyclopropyl]-4H-1,2,4-oxadiazol-5-one], the EC50 was over 10000 nM.

On to `Cc1cc(-n2nc3c(c2N2C(=O)CN(c4ccc5c(cnn5C)c4F)C2=O)[C@H]2CC[C@@H](C3)N2C(=O)c2cc3cc([C@H]4CCOC(C)(C)C4)ccc3n2[C@@]2(c3noc(=O)[nH]3)C[C@@H]2C)cc(C)c1F` [Compound 234, 3-[(1R,8S)-11-[5-[(4S)-2,2-dimethyltetrahydropyran-4-yl]-1-[(1S,2S)-2-methyl-1-(5-oxo-4H-1,2,4-oxadiazol-3-yl)cyclopropyl]indole-2-carbonyl]-4-(4-fluoro-3,5-dimethyl-phenyl)-4,5,11-triazatricyclo[6.2.1.02,6]undeca-2,5-dien-3-yl]-1-(4-fluoro-1-methyl-indazol-5-yl)imidazolidine-2,4-dione], for which the concentration for a half-maximal effect (EC50) was over 10000 nM.

On to `Cc1cc(-n2nc3c(c2-n2ccn(-c4cc(F)c5c(cnn5C)c4F)c2=O)[C@@H]2CC[C@H](C3)N2C(=O)c2cc3cc([C@H]4CCOC(C)(C)C4)ccc3n2[C@@]2(c3noc(=O)[nH]3)C[C@@H]2C)cc(C)c1F` [Compound 235, 3-[(1S,2S)-1-[2-[(1S,8R)-3-[3-(4,7-difluoro-1-methyl-indazol-5-yl)-2-oxo-imidazol-1-yl]-4-(4-fluoro-3,5-dimethyl-phenyl)-4,5,11-triazatricyclo[6.2.1.02,6]undeca-2,5-diene-11-carbonyl]-5-[(4S)-2,2-dimethyltetrahydropyran-4-yl]indol-1-yl]-2-methyl-cyclopropyl]-4H-1,2,4-oxadiazol-5-one], for which the EC50 is 459 nM.

The values above are taken from US12617783B2, “Heterocyclic GLP-1R agonists” (BIOMEA FUSION, INC., priority 2024, dated 2026).
